Laboratory results: patent US6737383B1, “Herbicidal oxadiazolidines” (priority 1999, dated 2004)

Key:
purple nutsedge = experiment: Test B pre/postemergence purple nutsedge; assay type: in vivo, Cyperus rotundus; settings: for Nutsedge plant response rating: scale of 0 to 10 where 0 is no effect and 10 is complete control
Procedure, shortened: (§1)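 Response is a visual 0-to-10 score relative to untreated plants, where 0 means no effect and 10 means complete control, taken twelve to sixteen days after application. Treatments went onto soil at planting and onto foliage of 1- to 4-leaf plants, using a surfactant-containing non-phytotoxic solvent.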

velvetleaf = experiment: Test B pre/postemergence velvetleaf; assay type: in vivo, Abutilon theophrasti; settings: for Velvetleaf plant response rating: scale of 0 to 10 where 0 is no effect and 10 is complete control
Procedure, shortened: as §1

rape = experiment: Test B pre/postemergence rape; assay type: in vivo, Brassica napus; settings: for Rape plant response rating: scale of 0 to 10 where 0 is no effect and 10 is complete control
Procedure, shortened: as §1

wild oat = experiment: Test B pre/postemergence wild oat; assay type: in vivo, Avena fatua; settings: for Wild oats plant response rating: scale of 0 to 10 where 0 is no effect and 10 is complete control
Procedure, shortened: as §1

giant foxtail = experiment: Test B pre/postemergence giant foxtail; assay type: in vivo, Setaria faberii; settings: for Giant foxtail plant response rating: scale of 0 to 10 where 0 is no effect and 10 is complete control
Procedure, shortened: as §1

soybean = experiment: Test B pre/postemergence soybean; assay type: in vivo, Glycine max; settings: for Soybean plant response rating: scale of 0 to 10 where 0 is no effect and 10 is complete control
Procedure, shortened: as §1

pigweed = experiment: Test B pre/postemergence pigweed; assay type: in vivo, Amaranthus retroflexus; settings: for Redroot pigweed plant response rating: scale of 0 to 10 where 0 is no effect and 10 is complete control
Procedure, shortened: as §1

corn = experiment: Test B pre/postemergence corn; assay type: in vivo, Zea mays; settings: for Corn plant response rating: scale of 0 to 10 where 0 is no effect and 10 is complete control
Procedure, shortened: as §1

crabgrass = experiment: Test B pre/postemergence crabgrass; assay type: in vivo, Digitaria sanguinalis; settings: for Crabgrass plant response rating: scale of 0 to 10 where 0 is no effect and 10 is complete control
Procedure, shortened: as §1

cocklebur = experiment: Test B pre/postemergence cocklebur; assay type: in vivo, Xanthium strumarium; settings: for Cocklebur plant response rating: scale of 0 to 10 where 0 is no effect and 10 is complete control
Procedure, shortened: as §1

blackgrass = experiment: Test B pre/postemergence blackgrass; assay type: in vivo, Alopecurus myosuroides; settings: for Blackgrass plant response rating: scale of 0 to 10 where 0 is no effect and 10 is complete control
Procedure, shortened: as §1

morningglory = experiment: Test B pre/postemergence morningglory; assay type: in vivo, Ipomoea hederacea; settings: for Morningglory plant response rating: scale of 0 to 10 where 0 is no effect and 10 is complete control
Procedure, shortened: as §1

surinam grass = experiment: Test B pre/postemergence surinam grass; assay type: in vivo, Brachiaria decumbens; settings: for B. signalgrass plant response rating: scale of 0 to 10 where 0 is no effect and 10 is complete control
Procedure, shortened: as §1

wheat = experiment: Test B pre/postemergence wheat; assay type: in vivo, Triticum aestivum; settings: for Wheat plant response rating: scale of 0 to 10 where 0 is no effect and 10 is complete control
Procedure, shortened: as §1

[1] = Postemergence, Rate 125 g/ha, scale 0 to 10, 0 is no effect, 10 is complete control
[2] = Postemergence, Rate 250 g/ha, scale 0 to 10, 0 is no effect, 10 is complete control
[3] = Preemergence, Rate 62 g/ha, scale 0 to 10 (0 no effect, 10 complete control)
[4] = Rate 500 g/ha, Postemergence, scale 0 to 10, 0 no effect, 10 complete control

CC(C)N(C(=O)n1oc(=O)n(CCl)c1=O)c1ccc(F)cc1 [Compound 376]
0: Plant response rating, Nutsedge (purple nutsedge; [1]) | Plant response rating, Nutsedge (purple nutsedge; [2]) | Plant response rating, Nutsedge (purple nutsedge; [3]) | Nutsedge plant response rating (0 to 10 scale) (purple nutsedge; Preemergence, Rate 125 g/ha) | Nutsedge plant response rating (purple nutsedge; Preemergence, Rate 250 g/ha) | Nutsedge plant response rating (purple nutsedge; Preemergence, Rate 500 g/ha) | Nutsedge plant response rating (purple nutsedge; Rate 62 g/ha, Postemergence) | Plant response rating, Nutsedge (purple nutsedge; [4]) | Plant response rating, Velvetleaf (velvetleaf; [1]) | Plant response rating, Velvetleaf (velvetleaf; [2]) | Plant response rating, Velvetleaf (velvetleaf; [3]) | Velvetleaf plant response rating (0 to 10 scale) (velvetleaf; Preemergence, Rate 125 g/ha) | Velvetleaf plant response rating (velvetleaf; Preemergence, Rate 250 g/ha) | Velvetleaf plant response rating (velvetleaf; Preemergence, Rate 500 g/ha) | Velvetleaf plant response rating (velvetleaf; Rate 62 g/ha, Postemergence) | Plant response rating, Velvetleaf (velvetleaf; [4]) | Plant response rating, Rape (rape; [1]) | Plant response rating, Rape (rape; [2]) | Plant response rating, Rape (rape; [3]) | Rape plant response rating (0 to 10 scale) (rape; Preemergence, Rate 125 g/ha) | Rape plant response rating (rape; Preemergence, Rate 250 g/ha) | Rape plant response rating (rape; Preemergence, Rate 500 g/ha) | Rape plant response rating (rape; Rate 62 g/ha, Postemergence) | Plant response rating, Rape (rape; [4]) | Plant response rating, Wild oats (wild oat; [1]) | Plant response rating, Wild oats (wild oat; [2]) | Plant response rating, Wild oats (wild oat; [3]) | Wild oats plant response rating (0 to 10 scale) (wild oat; Preemergence, Rate 125 g/ha) | Wild oats plant response rating (wild oat; Preemergence, Rate 250 g/ha) | Wild oats plant response rating (wild oat; Preemergence, Rate 500 g/ha) | Wild oats plant response rating (wild oat; Rate 62 g/ha, Postemergence) | Plant response rating, Wild oats (wild oat; [4]) | Plant response rating, Giant foxtail (giant foxtail; [1]) | Plant response rating, Giant foxtail (giant foxtail; [2]) | Plant response rating, Giant foxtail (giant foxtail; [3]) | Giant foxtail plant response rating (0 to 10 scale) (giant foxtail; Preemergence, Rate 125 g/ha) | Giant foxtail plant response rating (giant foxtail; Preemergence, Rate 250 g/ha) | Giant foxtail plant response rating (giant foxtail; Preemergence, Rate 500 g/ha) | Giant foxtail plant response rating (giant foxtail; Rate 62 g/ha, Postemergence) | Plant response rating, Giant foxtail (giant foxtail; [4]) | Plant response rating, Soybean (soybean; [1]) | Plant response rating, Soybean (soybean; [2]) | Plant response rating, Soybean (soybean; [3]) | Soybean plant response rating (0 to 10 scale) (soybean; Preemergence, Rate 125 g/ha) | Soybean plant response rating (soybean; Preemergence, Rate 250 g/ha) | Soybean plant response rating (soybean; Preemergence, Rate 500 g/ha) | Soybean plant response rating (soybean; Rate 62 g/ha, Postemergence) | Plant response rating, Soybean (soybean; [4]) | Plant response rating, Redroot pigweed (pigweed; [1]) | Plant response rating, Redroot pigweed (pigweed; [2]) | Plant response rating, Redroot pigweed (pigweed; [3]) | Redroot pigweed plant response rating (0 to 10 scale) (pigweed; Preemergence, Rate 125 g/ha) | Redroot pigweed plant response rating (pigweed; Preemergence, Rate 250 g/ha) | Redroot pigweed plant response rating (pigweed; Preemergence, Rate 500 g/ha) | Redroot pigweed plant response rating (pigweed; Rate 62 g/ha, Postemergence) | Plant response rating, Redroot pigweed (pigweed; [4]) | Plant response rating, Corn (corn; [1]) | Plant response rating, Corn (corn; [2]) | Plant response rating, Corn (corn; [3]) | Corn plant response rating (0 to 10 scale) (corn; Preemergence, Rate 125 g/ha) | Corn plant response rating (corn; Preemergence, Rate 250 g/ha) | Corn plant response rating (corn; Preemergence, Rate 500 g/ha) | Corn plant response rating (corn; Rate 62 g/ha, Postemergence) | Plant response rating, Corn (corn; [4]) | Plant response rating, Crabgrass (crabgrass; [1]) | Plant response rating, Crabgrass (crabgrass; [2]) | Plant response rating, Crabgrass (crabgrass; [3]) | Crabgrass plant response rating (0 to 10 scale) (crabgrass; Preemergence, Rate 125 g/ha) | Crabgrass plant response rating (crabgrass; Preemergence, Rate 250 g/ha) | Crabgrass plant response rating (crabgrass; Preemergence, Rate 500 g/ha) | Crabgrass plant response rating (crabgrass; Rate 62 g/ha, Postemergence) | Plant response rating, Crabgrass (crabgrass; [4]) | Plant response rating, Cocklebur (cocklebur; [1]) | Plant response rating, Cocklebur (cocklebur; [2]) | Plant response rating, Cocklebur (cocklebur; [3]) | Cocklebur plant response rating (0 to 10 scale) (cocklebur; Preemergence, Rate 125 g/ha) | Cocklebur plant response rating (cocklebur; Preemergence, Rate 250 g/ha) | Cocklebur plant response rating (cocklebur; Preemergence, Rate 500 g/ha) | Cocklebur plant response rating (cocklebur; Rate 62 g/ha, Postemergence) | Plant response rating, Cocklebur (cocklebur; [4]) | Plant response rating, Blackgrass (blackgrass; [1]) | Plant response rating, Blackgrass (blackgrass; [2]) | Plant response rating, Blackgrass (blackgrass; [3]) | Blackgrass plant response rating (0 to 10 scale) (blackgrass; Preemergence, Rate 125 g/ha) | Blackgrass plant response rating (blackgrass; Preemergence, Rate 250 g/ha) | Blackgrass plant response rating (blackgrass; Preemergence, Rate 500 g/ha) | Blackgrass plant response rating (blackgrass; Rate 62 g/ha, Postemergence) | Plant response rating, Blackgrass (blackgrass; [4]) | Plant response rating, Morningglory (morningglory; [1]) | Plant response rating, Morningglory (morningglory; [2]) | Plant response rating, Morningglory (morningglory; [3]) | Morningglory plant response rating (0 to 10 scale) (morningglory; Preemergence, Rate 125 g/ha) | Morningglory plant response rating (morningglory; Preemergence, Rate 250 g/ha) | Morningglory plant response rating (morningglory; Preemergence, Rate 500 g/ha) | Morningglory plant response rating (morningglory; Rate 62 g/ha, Postemergence) | Plant response rating, Morningglory (morningglory; [4]) | Plant response rating, B. signalgrass (surinam grass; [1]) | Plant response rating, B. signalgrass (surinam grass; [2]) | Plant response rating, B. signalgrass (surinam grass; [3]) | B. signalgrass plant response rating (0 to 10 scale, 0 is no effect, 10 is complete control) (surinam grass; Preemergence, Rate 125 g/ha) | B. signalgrass plant response rating (surinam grass; Preemergence, Rate 250 g/ha) | B. signalgrass plant response rating (surinam grass; Preemergence, Rate 500 g/ha) | B. signalgrass plant response rating (surinam grass; Rate 62 g/ha, Postemergence) | Plant response rating, B. signalgrass (surinam grass; [4]) | Plant response rating, Wheat (wheat; [1]) | Plant response rating, Wheat (wheat; [2]) | Plant response rating, Wheat (wheat; [3]) | Wheat plant response rating (0 to 10 scale) (wheat; Preemergence, Rate 125 g/ha) | Wheat plant response rating (wheat; Preemergence, Rate 250 g/ha) | Wheat plant response rating (wheat; Preemergence, Rate 500 g/ha) | Wheat plant response rating (wheat; Rate 62 g/ha, Postemergence) | Plant response rating, Wheat (wheat; [4])
